Like-named read-outs stand apart in the source and are kept apart here. Peptide text beside a SMILES is read from it.
How the values were obtained:
[1] = target: T1, DPP-IV (Homo sapiens, UniProt P27487); experiment: DPP-IV inhibitory assay (in vitro chemical system, Gly-Pro-pNA); type: biochemical; details: Gly-Pro-pNA substrate, pH 8, 37 °C, 60 min, mean ± SD
T1 construct: purchased Sigma-Aldrich
Method: The DPP-IV inhibitory activity of peptides was performed as previously reported with slight modifications. Briefly, peptides were diluted using 100 mM Tris-HCL buffer (pH = 8). Then, 25 μL diluted peptides were mixed with 25 μL of 1.6 mM Gly-Pro-pNA in a 96-well microplate and incubated at 37 °C for 10 min. […] The DPP-IV-inhibition (DI) was calculated with the following equation: DI%=1−AS−ASC/ANR−ANC×100% where AS (sample) is the optical density in the presence of peptide, DPP-IV, and Gly-Pro-pNA; ASC (sample control) is the optical density when DPP-IV is replaced with Tris-HCl buffer (100 mM, pH 8.0); ANR (negative reaction) is the optical density in the presence of only DPP-IV solution and Gly-Pro-pNA; and ANC (negative control) is the optical density in the absence of DPP-IV and peptide.

[2] = system: Caco-2 cells; experiment: Cell viability assay (MTT); type: cell-based; details: 0.025~1 mg/mL, 12 h
Method: (§1) The Caco-2 cells (Cell Bank of Shanghai Academy of Biological Science, Shanghai, China) were incubated at 37 °C in a 5% CO2 environment in DMEM supplemented with 10% FBS and 1% penicillin–streptomycin liquid. Unless otherwise stated below, the cells were cultivated at a density of 5 × 10^4 cells/mL in the culture dishes (Corning Inc., Corning, NY, USA). The cell culture medium was changed every two days, and the cells from passage numbers of 15–25 were used in this study.
The cell viability was determined following the method described by You et al. with slight modification. Briefly, Caco-2 cells were seeded in 96-well microplates with a density of 1 × 10^4 cells/well and incubated at 37 °C with 5% CO2 for 24 h. […] After 12 h of intervention, 10 μL of MTT (0.05 mg) was added and incubated for another 4 h. Finally, the DMEM medium was replaced with 100 μL of DMSO and the absorbance of the solubilized crystals was detected at 490 nm (Molecular Devices SpectraMax M5, San Jose, CA, USA). The cell viability was calculated by the following equation:Cell viability (%) = (ODtest − ODblank)/(ODcontrol − ODblank) × 100%

[3] = target: T2, DPP-IV activity of Caco-2 cells (Homo sapiens, UniProt P27487); experiment: In situ cell-based DPP-IV inhibition (Gly-Pro-AMC); details: 1 h at 37 °C, Gly-Pro-AMC 50 µM, mean ± SD (n = 3), read-out: In situ DPP-IV inhibitory activity IC50
T2 construct: endogenous in cells; host or cells: Caco-2
Method: as §1
Briefly, 2 × 10^4 Caco-2 cells/well cells were seeded in 96-well microplates and cultivated for 24 h. […] Subsequently, 100 µL of the fluorescent substrate Gly-Pro-AMC (50 µM) was added to each well and incubated for 5 min. IPI was used as a positive control. Then, the florescence was monitored with excitation and emission wavelengths of 380 nm and 500 nm (Molecular Devices SpectraMax M5, San Jose, CA, USA).

[4] = system: DPP-IV; details: cited from earlier work
[5] = peptides with molecular weights greater than 1000 Da, no reference given, read-out: DPP-IV inhibition IC50
[6] = in vitro, identified in the intestinal tract following cow milk ingestion, read-out: DPP-IV inhibition IC50
[7] = read-out: DPP-IV inhibition IC50
[8] = in vitro inhibition test, camel-milk-derived protein hydrolysates
[9] = competitive DPP-IV inhibitory peptides from camel whey protein, read-out: DPP-IV inhibition IC50

T1 sequence (P27487 whole entry): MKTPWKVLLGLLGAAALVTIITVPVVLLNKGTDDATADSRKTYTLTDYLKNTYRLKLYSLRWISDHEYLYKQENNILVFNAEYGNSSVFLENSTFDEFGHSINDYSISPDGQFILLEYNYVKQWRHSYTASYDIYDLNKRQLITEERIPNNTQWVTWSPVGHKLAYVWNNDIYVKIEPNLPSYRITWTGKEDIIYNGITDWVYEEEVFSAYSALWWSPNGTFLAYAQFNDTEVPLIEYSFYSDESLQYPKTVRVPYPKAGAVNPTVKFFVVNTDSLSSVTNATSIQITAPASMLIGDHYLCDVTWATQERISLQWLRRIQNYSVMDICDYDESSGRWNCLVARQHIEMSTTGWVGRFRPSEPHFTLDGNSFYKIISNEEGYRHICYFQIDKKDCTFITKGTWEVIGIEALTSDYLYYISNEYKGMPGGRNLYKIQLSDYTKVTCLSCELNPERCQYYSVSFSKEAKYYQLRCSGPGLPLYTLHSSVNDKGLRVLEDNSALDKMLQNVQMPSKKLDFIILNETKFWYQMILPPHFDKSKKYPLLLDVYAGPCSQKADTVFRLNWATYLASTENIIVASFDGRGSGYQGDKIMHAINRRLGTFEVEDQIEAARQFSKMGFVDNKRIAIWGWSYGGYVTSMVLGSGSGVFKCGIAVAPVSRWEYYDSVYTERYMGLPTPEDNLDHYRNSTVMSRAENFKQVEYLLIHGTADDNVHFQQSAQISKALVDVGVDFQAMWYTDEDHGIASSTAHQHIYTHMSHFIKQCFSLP
T2 sequence (P27487 whole entry): as above

CC(C)[C@H](N)C(=O)N1CCC[C@H]1C(=O)N1CCC[C@H]1C(=O)N[C@@H](Cc1ccccc1)C(=O)O [Peptide P2, VPPF] (H-VPPF-OH)
IC50 [1]: 1570 ± 256 µM

CC(C)C[C@H](NC(=O)[C@@H]1CCCN1C(=O)[C@@H]1CCCN1C(=O)[C@@H](N)CC(C)C)C(=O)O [Peptide P3, LPPL] (H-LPPL-OH; N-terminus and C-terminus assumed)
IC50 [1]: 2559 ± 5.7 µM

N[C@@H](Cc1ccc(O)cc1)C(=O)N1CCC[C@H]1C(=O)N[C@@H](Cc1ccccc1)C(=O)O [Peptide P4, YPF] (H-Tyr-Pro-Phe-OH)
Cell viability [2]: no significant decrease in cell viability

CC(C)C[C@H](NC(=O)[C@H](C)NC(=O)[C@@H]1CCCN1)C(=O)N[C@@H](Cc1ccccc1)C(=O)O [Peptide P5, PALF] (H-PALF-OH; N-terminus and C-terminus assumed)
IC50 [1]: 1750 ± 29.9 µM

CC(C)C[C@H](NC(=O)[C@@H](N)CC(C)C)C(=O)N[C@@H](CC(C)C)C(=O)N1CCC[C@H]1C(=O)O [Peptide P9, LLLP] (H-LLLP-OH; N-terminus and C-terminus assumed)
IC50 [3]: 155 ± 8.41 µM
IC50 [1]: 214 ± 0.64 µM
Cell viability [2]: no significant decrease in cell viability

FLEP
IC50 ([4]; tri- and tetrapeptides containing Pro at the C-terminus, read-out: DPP-IV inhibition IC50): 65.3 ± 3.5 µM

FVY [Peptide P6]
DPP-IV Inhibitory Activity (IC50, μM) [1]: not detectable

INNQFLPYPY
IC50 [4, 5]: 40.1 µM

IPAVF
IC50 ([4]; identified from bovine β-lactoglobulin, read-out: DPP-IV inhibition IC50): 44.7 µM

IPM
IC50 [4, 6]: 69.5 ± 8.7 µM

IPYWT
IC50 [4, 7]: 18.3 µM

IPYWTY
IC50 [4, 7]: 11 µM

LLAP
DPP-IV inhibitory activity (in words) [4]: high DPP-IV inhibitory activity

LLW [Peptide P14]
DPP-IV Inhibitory Activity (IC50, μM) [1]: not detectable
DPP-IV Inhibitory Activity (IC50, μM) ([1]; listed as LLW): no DPP-IV inhibitory activity

LPVP
IC50 [4, 8]: 87 ± 3.2 µM

LPVPQ
IC50 [4, 6]: 43.8 ± 8.8 µM

LVW [Peptide P11]
DPP-IV Inhibitory Activity (IC50, μM) [1]: not detectable

LWV [Peptide P12]
DPP-IV Inhibitory Activity (IC50, μM) [1]: not detectable

LYL [Peptide P7]
DPP-IV Inhibitory Activity (IC50, μM) [1]: not detectable

MPVQA
IC50 [4, 8]: 93.3 ± 8 µM

PACGGFYISGRPG
IC50 [4, 5]: 9.4 µM

VPF
IC50 [4, 9]: 55.1 µM

VPV
IC50 [4, 9]: 6.6 µM

WVL [Peptide P10]
DPP-IV inhibitory activity (in words) ([4]; literature search): previously reported to have DPP-IV inhibitory activity

YPI
IC50 [4, 9]: 35 µM

From article PMC11049645, “Mechanistic Study of Novel Dipeptidyl Peptidase IV Inhibitory Peptides from Goat’s Milk Based on Peptidomics and In Silico Analysis” (Foods, 2024)
